# Data reported in article PMC3192011 (Journal of medicinal chemistry, 2009).
# Where “and” joins values, the source holds several entries; their conditions need not be identical. Equal entries are not always repeated. Entries after “also recorded” stand apart in the source; their conditions may differ. Where two headings read alike, the source gives them in different places.
# Key:
# mGlu5 [1] = target: T1, mGlu5 (Rattus norvegicus, UniProt P31424); conditions: cited from earlier work
# [2] = tested on: amphetamine-induced hyperlocomotion in rats; conditions: cited from earlier work
# mGlu5 [3] = target: T1, mGlu5; experiment: mGlu5 cell-based in vitro functional assay; conditions: for IC50/EC50 (nM): EC50: PAM, potentiation in the presence of glutamate EC20; for IC50/EC50 (nM): EC50 / IC50/EC50 (nM): IC50: average of at least three independent determinations; for IC50/EC50 (nM): IC50: NAM
# [4] = tested on: amphetamine-induced hyperlocomotion in rats; experiment: Reversal of amphetamine-induced hyperlocomotion; type: in vivo
# mGlu1 = mGlu1 (Homo sapiens, UniProt Q13255); experiment: mGlu selectivity, mGlu1; type: cell-based
# mGlu2 = mGlu2 (Homo sapiens, UniProt Q14416); experiment: mGlu selectivity, mGlu2; type: cell-based
# mGlu3 = mGlu3 (Homo sapiens, UniProt Q14832); experiment: mGlu selectivity, mGlu3; type: cell-based
# mGlu4 = mGlu4 (Homo sapiens, UniProt Q14833); experiment: mGlu selectivity, mGlu4; type: cell-based
# mGlu7 = mGlu7 (Homo sapiens, UniProt Q14831); experiment: mGlu selectivity, mGlu7; type: cell-based
# mGlu8 = mGlu8 (Homo sapiens, UniProt O00222); experiment: mGlu selectivity, mGlu8; type: cell-based
# punished responding = experiment: Modified Geller-Seifter conflict model; type: in vivo, rodent; conditions: 1, 3, 10, 30 mg/kg
# T1 sequence (P31424 21-1203): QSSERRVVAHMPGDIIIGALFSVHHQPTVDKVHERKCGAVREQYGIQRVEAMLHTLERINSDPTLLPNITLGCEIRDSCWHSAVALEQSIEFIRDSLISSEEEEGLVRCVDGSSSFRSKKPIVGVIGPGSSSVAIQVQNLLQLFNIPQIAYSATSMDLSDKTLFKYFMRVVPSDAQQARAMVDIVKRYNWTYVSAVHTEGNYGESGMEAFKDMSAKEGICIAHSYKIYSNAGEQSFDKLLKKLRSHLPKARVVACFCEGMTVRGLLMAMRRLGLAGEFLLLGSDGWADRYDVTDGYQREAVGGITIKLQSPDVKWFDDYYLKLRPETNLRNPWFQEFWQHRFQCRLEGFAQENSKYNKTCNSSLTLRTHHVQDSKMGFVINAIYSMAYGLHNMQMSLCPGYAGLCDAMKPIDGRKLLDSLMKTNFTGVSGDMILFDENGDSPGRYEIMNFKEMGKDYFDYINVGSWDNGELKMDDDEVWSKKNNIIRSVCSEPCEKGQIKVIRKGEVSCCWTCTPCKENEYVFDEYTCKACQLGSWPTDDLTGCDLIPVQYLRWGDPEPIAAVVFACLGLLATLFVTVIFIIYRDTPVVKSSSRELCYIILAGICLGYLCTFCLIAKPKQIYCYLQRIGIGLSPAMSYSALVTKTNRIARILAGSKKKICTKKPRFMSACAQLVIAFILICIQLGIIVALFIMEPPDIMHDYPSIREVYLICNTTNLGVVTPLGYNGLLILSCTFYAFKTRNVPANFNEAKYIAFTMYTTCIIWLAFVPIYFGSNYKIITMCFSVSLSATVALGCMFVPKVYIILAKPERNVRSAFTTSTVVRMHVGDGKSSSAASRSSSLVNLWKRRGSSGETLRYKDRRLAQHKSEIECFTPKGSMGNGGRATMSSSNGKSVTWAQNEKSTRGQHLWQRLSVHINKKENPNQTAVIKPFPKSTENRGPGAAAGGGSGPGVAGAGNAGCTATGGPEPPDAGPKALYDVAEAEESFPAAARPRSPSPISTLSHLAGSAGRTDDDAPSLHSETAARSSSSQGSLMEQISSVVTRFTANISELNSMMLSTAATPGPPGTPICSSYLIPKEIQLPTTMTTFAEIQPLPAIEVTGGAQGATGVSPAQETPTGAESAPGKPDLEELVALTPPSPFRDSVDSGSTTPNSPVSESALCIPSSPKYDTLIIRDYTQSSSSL
# Sequence of mGlu4 (Q14833 33-912): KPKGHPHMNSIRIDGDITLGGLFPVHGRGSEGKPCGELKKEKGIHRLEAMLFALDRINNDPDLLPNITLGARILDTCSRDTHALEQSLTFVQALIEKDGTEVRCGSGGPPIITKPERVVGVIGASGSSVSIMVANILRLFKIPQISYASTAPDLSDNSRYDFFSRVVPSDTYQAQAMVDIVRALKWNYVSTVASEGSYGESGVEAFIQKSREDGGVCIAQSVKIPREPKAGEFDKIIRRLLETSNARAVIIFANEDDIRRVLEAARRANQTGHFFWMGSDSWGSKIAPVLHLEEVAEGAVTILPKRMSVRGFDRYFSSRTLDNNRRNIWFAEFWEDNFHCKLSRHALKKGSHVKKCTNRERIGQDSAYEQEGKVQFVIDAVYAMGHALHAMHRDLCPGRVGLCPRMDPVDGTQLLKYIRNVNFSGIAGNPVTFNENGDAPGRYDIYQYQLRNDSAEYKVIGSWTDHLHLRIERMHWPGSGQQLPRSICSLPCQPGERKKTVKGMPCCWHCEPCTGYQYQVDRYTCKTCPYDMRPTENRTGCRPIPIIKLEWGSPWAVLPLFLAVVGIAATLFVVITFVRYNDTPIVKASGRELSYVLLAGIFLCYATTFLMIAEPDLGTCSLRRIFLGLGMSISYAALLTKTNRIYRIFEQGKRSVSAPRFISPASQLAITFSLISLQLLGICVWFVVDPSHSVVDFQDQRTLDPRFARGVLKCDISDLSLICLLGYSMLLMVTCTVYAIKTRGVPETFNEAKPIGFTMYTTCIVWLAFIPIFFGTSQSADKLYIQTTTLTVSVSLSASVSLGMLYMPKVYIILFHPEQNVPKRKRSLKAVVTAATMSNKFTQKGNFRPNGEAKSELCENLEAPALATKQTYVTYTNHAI
# Sequence of mGlu1 (Q13255 19-1194): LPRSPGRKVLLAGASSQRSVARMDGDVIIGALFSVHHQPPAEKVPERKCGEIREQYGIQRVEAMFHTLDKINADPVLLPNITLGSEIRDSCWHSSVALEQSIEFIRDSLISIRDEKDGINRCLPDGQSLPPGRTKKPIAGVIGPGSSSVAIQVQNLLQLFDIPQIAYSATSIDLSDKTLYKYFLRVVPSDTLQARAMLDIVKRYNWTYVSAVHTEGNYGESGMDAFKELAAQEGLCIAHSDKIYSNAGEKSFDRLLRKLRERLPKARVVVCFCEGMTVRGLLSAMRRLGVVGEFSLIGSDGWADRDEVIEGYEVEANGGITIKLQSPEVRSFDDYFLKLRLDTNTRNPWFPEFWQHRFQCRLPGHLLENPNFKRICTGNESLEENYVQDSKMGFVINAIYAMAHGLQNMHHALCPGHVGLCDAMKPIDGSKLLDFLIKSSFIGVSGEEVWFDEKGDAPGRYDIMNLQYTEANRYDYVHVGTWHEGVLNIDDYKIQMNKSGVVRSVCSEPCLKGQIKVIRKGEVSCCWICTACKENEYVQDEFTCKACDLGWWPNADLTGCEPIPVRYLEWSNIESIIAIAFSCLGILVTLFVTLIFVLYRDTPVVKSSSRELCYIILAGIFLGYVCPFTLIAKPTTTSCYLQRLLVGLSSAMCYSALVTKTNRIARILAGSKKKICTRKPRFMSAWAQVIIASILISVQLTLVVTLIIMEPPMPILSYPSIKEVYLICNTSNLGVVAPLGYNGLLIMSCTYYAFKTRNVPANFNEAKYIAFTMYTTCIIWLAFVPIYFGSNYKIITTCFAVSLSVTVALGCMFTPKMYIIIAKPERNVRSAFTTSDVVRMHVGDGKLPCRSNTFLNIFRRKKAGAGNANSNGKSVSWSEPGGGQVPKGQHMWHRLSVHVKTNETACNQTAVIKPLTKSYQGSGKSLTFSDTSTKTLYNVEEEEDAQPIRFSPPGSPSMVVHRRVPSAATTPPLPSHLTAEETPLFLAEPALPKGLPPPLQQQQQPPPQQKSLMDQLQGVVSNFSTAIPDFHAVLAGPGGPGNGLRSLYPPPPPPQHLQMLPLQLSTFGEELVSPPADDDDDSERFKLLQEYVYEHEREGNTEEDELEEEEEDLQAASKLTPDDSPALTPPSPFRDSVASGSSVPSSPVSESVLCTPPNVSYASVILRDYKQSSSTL
# Sequence of mGlu7 (Q14831 35-915): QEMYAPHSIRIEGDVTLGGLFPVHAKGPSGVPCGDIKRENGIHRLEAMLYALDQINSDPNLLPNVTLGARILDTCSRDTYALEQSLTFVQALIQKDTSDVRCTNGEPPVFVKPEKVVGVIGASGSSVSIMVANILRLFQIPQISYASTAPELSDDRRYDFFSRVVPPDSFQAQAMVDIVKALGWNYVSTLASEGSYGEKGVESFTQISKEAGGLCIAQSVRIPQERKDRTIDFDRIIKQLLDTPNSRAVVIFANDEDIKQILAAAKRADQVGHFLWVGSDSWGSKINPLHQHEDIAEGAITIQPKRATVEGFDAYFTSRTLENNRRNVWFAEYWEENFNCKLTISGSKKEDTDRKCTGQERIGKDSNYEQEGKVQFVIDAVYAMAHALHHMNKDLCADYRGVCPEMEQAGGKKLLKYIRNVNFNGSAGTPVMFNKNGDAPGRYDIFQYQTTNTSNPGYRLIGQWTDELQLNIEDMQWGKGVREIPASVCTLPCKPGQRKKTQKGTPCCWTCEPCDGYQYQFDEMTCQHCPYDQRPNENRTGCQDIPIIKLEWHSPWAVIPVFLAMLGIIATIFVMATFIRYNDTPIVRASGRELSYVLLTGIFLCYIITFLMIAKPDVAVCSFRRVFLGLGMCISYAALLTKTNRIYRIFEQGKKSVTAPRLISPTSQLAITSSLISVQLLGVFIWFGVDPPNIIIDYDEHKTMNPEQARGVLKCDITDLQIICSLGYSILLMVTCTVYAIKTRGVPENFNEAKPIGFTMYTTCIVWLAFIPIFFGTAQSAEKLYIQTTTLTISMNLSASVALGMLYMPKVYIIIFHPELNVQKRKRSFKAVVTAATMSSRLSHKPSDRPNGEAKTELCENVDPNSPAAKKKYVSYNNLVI
# Sequence of mGlu3 (Q14832 23-879): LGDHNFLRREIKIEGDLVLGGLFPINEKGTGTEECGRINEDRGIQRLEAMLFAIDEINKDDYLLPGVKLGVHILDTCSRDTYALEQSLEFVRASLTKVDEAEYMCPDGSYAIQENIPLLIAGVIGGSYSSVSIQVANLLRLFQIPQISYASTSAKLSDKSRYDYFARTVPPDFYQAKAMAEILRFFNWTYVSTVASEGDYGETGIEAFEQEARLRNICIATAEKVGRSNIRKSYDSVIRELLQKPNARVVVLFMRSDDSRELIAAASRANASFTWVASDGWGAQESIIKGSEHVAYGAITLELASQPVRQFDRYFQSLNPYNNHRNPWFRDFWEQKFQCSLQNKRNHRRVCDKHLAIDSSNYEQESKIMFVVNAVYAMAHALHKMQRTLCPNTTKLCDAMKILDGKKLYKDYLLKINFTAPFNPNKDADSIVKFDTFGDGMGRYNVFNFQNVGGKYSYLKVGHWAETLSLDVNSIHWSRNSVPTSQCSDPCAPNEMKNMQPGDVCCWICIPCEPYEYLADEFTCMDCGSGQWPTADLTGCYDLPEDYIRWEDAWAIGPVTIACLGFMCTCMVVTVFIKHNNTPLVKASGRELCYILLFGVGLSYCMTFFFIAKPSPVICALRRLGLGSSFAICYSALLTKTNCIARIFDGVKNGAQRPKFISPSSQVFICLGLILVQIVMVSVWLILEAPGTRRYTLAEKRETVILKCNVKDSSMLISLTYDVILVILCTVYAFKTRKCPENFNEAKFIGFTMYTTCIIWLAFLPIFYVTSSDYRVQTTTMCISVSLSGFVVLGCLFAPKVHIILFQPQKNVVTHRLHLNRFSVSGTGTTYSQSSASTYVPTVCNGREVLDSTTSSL
smiles,measurement,setting,value
"O=C(c1ccc(F)cc1)N1CCC[C@H](c2nc(-c3ccc(F)cc3)no2)C1 [compound 7, reference compound]",mode of mGlu5 pharmacology in words,mGlu5 [1],ago-potentiators
same,efficacy in amphetamine-induced hyperlocomotion model,[2],robust efficacy
CNc1ncc(C#Cc2ccccc2)cn1 [16b],mGlu5 activity in words,mGlu5 [3],pure mGlu5 PAM
same,IC50/EC50 (nM): EC50,mGlu5 [3],14.3 nM
same,activity in the absence of glutamate (agonism),mGlu5 [3]; no glutamate,does not activate mGlu5
same,reversal of amphetamine-induced hyperlocomotion,"[4]; i.p. 3, 10 or 30 mg/kg thirty minutes prior to s.c. 1 mg/kg amphetamine, vehicle 10% Tween 80",significant reversal noted at the 30 mg/kg dose; also recorded: dose-dependent manner
same,effect of compound/vehicle alone on locomotion (sedation),[4]; without amphetamine,no effect
CNc1ncc(C#Cc2cccc(C)c2)cn1 [16c],IC50/EC50 (nM): EC50,mGlu5 [3],21.1 nM and 21 nM
CCOc1ncc(C#Cc2cccc(C)c2)cn1 [16a],IC50/EC50 (nM): IC50,mGlu5 [3],21 nM
Cc1cccc(C#Cc2ncccn2)c1 [17b],IC50/EC50 (nM): IC50,mGlu5 [3],10.8 ± 2.7 nM
same,selectivity vs. mGlu1,mGlu1,> 10 µM
same,selectivity vs. mGlu2,mGlu2,> 10 µM
same,selectivity vs. mGlu3,mGlu3,> 10 µM
same,selectivity vs. mGlu4,mGlu4,> 10 µM
same,selectivity vs. mGlu7,mGlu7,> 10 µM
same,selectivity vs. mGlu8,mGlu8,> 10 µM
same,unpunished responding,punished responding,no significant effect on unpunished responding; also recorded: did not change significantly at any of the doses tested
same,punished responding vs vehicle,punished responding; p < 0.05 Newman-Keul,both the 10 and 30 mg/kg doses in the punished component of the schedule differed significantly from vehicle; also recorded: significantly greater number of responses than animals tested on vehicle
CSc1ncc(C#Cc2ccccc2)cn1 [16d],IC50/EC50 (nM): EC50,mGlu5 [3],120 nM
Cc1ccc(C#Cc2ncccn2)cc1 [17c],mGlu5 activity in words,mGlu5 [3],inactive
"N#Cc1cccc(C(=O)Nc2cc(-c3ccccc3)nn2-c2ccccc2)c1 [compound 6, reference compound]",mode of mGlu5 pharmacology in words,mGlu5 [1],ago-potentiators
same,efficacy in amphetamine-induced hyperlocomotion model,[2],robust efficacy
CC(C)(C)c1ncc(C#Cc2ccccc2)cn1 [16e],IC50/EC50 (nM): EC50,mGlu5 [3],247 nM
CNc1ncc(C#Cc2ccc(C)cc2)cn1 [16f],mGlu5 activity in words,mGlu5 [3],weak mGlu5 PAM
Cc1ccc(C#Cc2cncnc2)cc1 [compound 10],IC50/EC50 (nM): EC50,"mGlu5 [1]; PAM, table value of earlier compound","3,300±290 nM"
same,Fold Shift,mGlu5 [1]; mGlu5 PAM,4.2 fold
same,"efficacy, % of glutamate max",mGlu5 [1]; mGlu5 PAM,99%
